Assay results from patent US20240182413A1, “INSECTICIDAL COMPOUNDS” (Pluton Biosciences, Inc., priority 2022, published 2024).
Converted amounts (≈) assume the structure as drawn. “And” between values parts separate entries of the source, which are not always exact repeats. Equal entries are not always repeated. “Also recorded” adds a separate entry of the source. Where two headings read alike, the source gives them in different places.

Tests used:
[1] = system: Spodoptera frugiperda (fall armyworm) first instar larvae; assay: Spodoptera frugiperda killing assay (diet-surface overlay); format: in vivo
Method: Insect killing assays. Each compound was dissolved in dimethyl sulfoxide (DMSO). Killing dose curves were constructed for each compound by producing a two-fold dilution series of the compound (e.g., comprising approximately 16 serial dilutions of a stock for 3,3′-diindolylmethane and 3-((1H-Indol-2-yl)methyl)-1H-indole and comprising approximately 12 serial dilutions of a stock for 3,3′-diindolyl and 3,3′-(pyridin-4-ylmethylene)bis(1H-indole)). Dilutions were made in sterile NYSM broth as described above. The two-fold dilution series were tested in a killing bioassay as described below. Data were collected to construct a dose curve and determine the half-maximal lethal concentration (LC50) value.
Bioassays were performed using first instar larvae of the Lepidopteran species Spodoptera frugiperda (fall armyworm), with an N=16 for each concentration of compound tested. S. frugiperda larvae were purchased from Benzon Research, Inc. (Carlisle, PA). A diet-surface overlay format was used in which 1 milliliter of standard lepidopteran diet was placed in each well. One hundred microliters of sample were pipetted into each well and allowed to dry. A DMSO control was included with each set of samples.
During the development of embodiments of the technology described herein, experiments were conducted to test the killing of arundine against a panel of 11 insect species. […] Briefly, arundine was dissolved in dimethyl sulfoxide (DMSO). Killing dose curves were constructed by producing a two-fold dilution series of arundine. Dilutions were made in sterile NYSM as described. The two-fold dilution series were tested in a killing bioassay performed using first instar larvae of the species listed in Table 4, with an N=16 for each concentration of compound tested. A diet-surface overlay format was used in which 1 milliliter of standard lepidopteran diet was placed in each well. One hundred microliters of sample were pipetted into each well and allowed to dry. A DMSO control was included with each set of samples. […] Data were collected to construct a dose curve and determine the half-maximal lethal concentration (LC50) value.

Aedes aegypti larvae = assay: Aedes aegypti killing assay (larval bioassay, two-fold dilution series); format: in vivo
Method: Insect killing assays. Each compound was dissolved in dimethyl sulfoxide (DMSO). Killing dose curves were constructed for each compound by producing a two-fold dilution series for each compound (e.g., comprising approximately 20 serial dilutions of a stock). Dilutions were made in sterile nutrient yeast extract salt medium (NYSM) broth. The NYSM contained 8 g/L nutrient broth powder, 0.5 g/L yeast extract, 1 mM MgCl2, 700 μM CaCl2, and 50 μM MnCl2 in water. The two-fold dilution series were tested in a killing bioassay as described below. Data were collected to construct a dose curve and determine the half-maximal lethal concentration (LC50) value.
Bioassays were performed using second or third instar Aedes aegypti larvae, with biological replication. Ae. aegpyti larvae were purchased from Benzon Research, Inc. (Carlisle, PA). Larvae were washed with sterile water before transfer to 24-well assay plates containing 1 mL of sterile water in each well. Each well contained 5 larvae. The final DMSO concentration in each assay well was 1%. Larval mortality was scored for each well at 24-hour timepoints after application. […] In Table 1, mean mortalities and standard deviations were calculated from at least three independent biological replicates. […] LC50 values were calculated using GraphPad Prism software.

[2] = Spodoptera frugiperda, first instar larvae, calculated from killing dose curves FIG. 3D to 3NN, read-out: LD50 (the source's name)
[3] = first instar larvae, calculated from killing dose curves FIG. 3D to 3NN, read-out: LD50 (the source's name)

How did the LC50 [1, 2] turn out when `CC(c1c[nH]c2cc(Cl)ccc12)c1c[nH]c2cc(Cl)ccc12` [BIM-22] was run?
The LC50 was < 3000 µM.

How did the LC50 [1, 2] turn out when `CC(c1c[nH]c2ccccc12)c1c[nH]c2ccccc12` [BIM-3] was run?
The LC50 was 1280 µM.

`COc1ccc2c(Cc3c[nH]c4cc(OC)ccc34)c[nH]c2c1` [BIM-20] was tested. Which LC50 [1, 3] did it give?
The LC50 was >3000 µM.

`CN(C)Cc1c[nH]c2ccccc12` [gramine] was tested. Which LC50 (Aedes aegypti larvae; Aedes aegypti, 72 h) did it give?
Its LC50 is 189 µg/mL and 1.08 mM.

`CCCC(c1c[nH]c2cc(Cl)ccc12)c1c[nH]c2cc(Cl)ccc12` [BIM-24] was tested. Which LC50 [1, 2] did it give?
The LC50 was 678 µM.

How did the LC50 ([1]; Spodoptera frugiperda, read-out: LD50 (μM)) turn out when `O=[N+]([O-])c1ccc2c(Cc3c[nH]c4cc([N+](=O)[O-])ccc34)c[nH]c2c1` [BIM-18] was run?
The LC50 was > 10000 µM.

Which LC50 (Aedes aegypti larvae; Aedes aegypti, 72 h) does the source give for `Cc1cn(C)c2ccccc12` [1,3 dimethylindole, 1,3-dimethylindole] here?
The LC50 was 13.8 µg/mL and 95.2 µM.

`Clc1ccc(C(c2c[nH]c3cc(Cl)ccc23)c2c[nH]c3cc(Cl)ccc23)cc1` [BIM-33] was tested. Which LC50 [1, 2] did it give?
The LC50 was 485 µM.

For `Clc1ccc2c(Cc3c[nH]c4ccccc34)c[nH]c2c1` [BIM-36], which LC50 [1, 3] is on record?
Its LC50 is 2457 µM.

`c1ccc2[nH]ccc2c1` [indole] was tested. Which LC50 (Aedes aegypti larvae; Aedes aegypti, 72 h) did it give?
Its LC50 is 40.2 µg/mL and 344 µM.

`CCC(c1c[nH]c2ccccc12)c1c[nH]c2ccccc12` [BIM-5] was tested. Which LC50 [1, 2] did it give?
The LC50 was 2380 µM.

`c1ccc(CC(c2c[nH]c3ccccc23)c2c[nH]c3ccccc23)cc1` [BIM-8] was tested. Which LC50 [1, 2] did it give?
Its LC50 is 1480 µM.

For `FC(F)(F)c1ccc2c(Cc3c[nH]c4cc(C(F)(F)F)ccc34)c[nH]c2c1` [BIM-21], which LC50 [1, 2] is on record?
Its LC50 is 974 µM.

`Clc1ccc2c(C(c3ccc(Br)cc3)c3c[nH]c4ccccc34)c[nH]c2c1` (centres unmarked) [BIM-37 R/S 1:1] was tested. Which LC50 [1, 3] did it give?
Its LC50 is 725 µM.

How did the LC50 [1, 2] turn out when `CCC(c1c[nH]c2cc(Cl)ccc12)c1c[nH]c2cc(Cl)ccc12` [BIM-23] was run?
The LC50 was 1350 µM.

For `Oc1ccc2[nH]ccc2c1` [5-hydroxyindole], which LC50 (Aedes aegypti larvae; Aedes aegypti, 72 h) is on record?
The LC50 was 279 µg/mL and 2.09 mM.

With `Fc1ccc2c(Cc3c[nH]c4cc(F)ccc34)c[nH]c2c1` [BIM-13] as the compound, how does the LC50 [1, 2] read?
Its LC50 is 1850 µM.

For `c1ccc2c(-c3c[nH]c4ccccc34)c[nH]c2c1` [3,3′-diindolyl], which “killing activity against Aedes aegypti” value (Aedes aegypti larvae; larvae) is on record?
The value was “did not display any bioactivity; also recorded: does not have significant killing activity”.

What about the “LC50 (μg/mL)” value (Aedes aegypti larvae; second or third instar larvae, mortalities at 72 hours, mean ± standard deviation, at least three biological replicates) of the same compound?
Its value is >2500 µg/mL.

And the LC50 (Aedes aegypti larvae; second or third instar larvae, mortalities at 72 hours, mean ± standard deviation, at least three biological replicates, read-out: LC50)?
Its LC50 is > 1000 µM.

And the “activity against S. frugiperda” value ([1]; first instar larvae)?
The value was “not active; also recorded: does not have significant killing activity”.

For `Clc1ccc2[nH]cc(Cc3c[nH]c4ccc(Cl)cc34)c2c1` [BIM-10], which LC50 [1, 2] is on record?
The LC50 was > 3000 µM.

For `Fc1ccc2[nH]cc(Cc3c[nH]c4ccc(F)cc34)c2c1` [3,3′-methylenebis(5-fluoro-1H-indole)], which LC50 (Aedes aegypti larvae; Aedes aegypti, 72 h) is on record?
Its LC50 is 2.2 µg/mL and 7.8 µM.

`OCc1c[nH]c2ccccc12` [indole-3-carbinol] was tested. Which LC50 (Aedes aegypti larvae; in vivo) did it give?
Its LC50 is 453 ± 307 µM.

And the “LC50 (μg/mL)” value (Aedes aegypti larvae; in vivo)?
Its value is 66.7 ± 45.2 µg/mL (≈ 0.453 mM).

For `N#Cc1ccc2c(Cc3c[nH]c4cc(C#N)ccc34)c[nH]c2c1` [BIM-17], which LC50 [1, 2] is on record?
The LC50 was > 10000 µM.
